The values that follow come from publication PMC9828437, “Novel hybrids of thiazolidinedione-1,3,4-oxadiazole derivatives: synthesis, molecular docking, MD simulations, ADMET study, in vitro, and in vivo anti-diabetic assessment” (RSC Advances, 2023).

Where “and” joins values, the source holds several entries; their conditions need not be identical. Equal entries are not always repeated.

Usually IC50 stands for the concentration that inhibits the measured activity by half. In general, melting point refers to the temperature of the solid-liquid transition.

Data set [1] has as its target α-amylase. The experiment in a line: In vitro α-amylase inhibitory assay. The class given is biochemical. The following applies: mean of three replicates ±SD. On the procedure:
The reaction mixture contains 20 μL of α-amylase solution (0.5 mg mL^−1) and 200 μL of sodium phosphate buffer (pH 6.9, 0.02 M). Test samples ([…]) were added (250 μL) to the reaction mixture following which; incubation was carried out for 10 min at room temperature. This was accompanied by the addition of 200 μL of 1% starch solution, and further incubated for 10 min at 25 °C. By adding 400 μL of dinitrosalicylic acid (DNS) reagent, the reaction was terminated. Lastly, it was incubated in water (70 °C, 5 min). The absorbance was recorded using an ELISA microplate reader at 540 nm. […] All the experiments were performed in triplicates. It was the reaction mixture without the test sample that served as the control for the test.[31]
The percent inhibition was calculated as:% Inhibition = [(C − T)/C] × 100C – absorbance of control, T – absorbance of sample.

Data set [2] concerns the target α-glucosidase. The experiment in a line: In vitro α-glycosidase inhibitory assay. As to conditions: mean of three replicates ±SD. The class given is biochemical. The protocol: The reaction mixture contains 50 μL of 0.1 M phosphate buffer (pH = 6.8), 10 μL of α-glucosidase enzyme and 20 μL of test samples (10–50 μg mL^−1) were taken in a 96-well plate and incubated at 37 °C for 15 min. Furthermore, 20 μL of p-nitrophenyl D-glucopyranoside solution was added as a substrate and incubated for an additional 20 min at 37 °C. 50 μL of 0.1 M Na2CO3 is added to terminate the reaction. The liberated p-nitrophenol was measured at 405 nm with an Elisa microplate reader. […] All the experiments were performed in triplicates.[31]
The inhibition was calculated in percentage as:% Inhibition = [(C − T)/C] × 100C – absorbance of control, T – absorbance of sample.

Data set [3] concerns Drosophila melanogaster. Kind of data set: In vivo antihyperglycemic test in Drosophila on high sugar diet. The following applies: for significance of antihyperglycemic activity: Drosophila on HSD, 18 μg g^−1 feed; for reduction in glucose levels, female flies / percent reduction in glucose levels, male flies: HSD with 18 μg g^−1 feed, 10 days. The protocol:
In this study, Oregon-R flies were obtained directly from the Nitte University, Drosophila Lab, Mangalore, India, and maintained on a wheat cream-agar medium with a relative humidity of 65–70%, and a light–dark cycle of twelve hours each. Separation of males and females of one-day-old flies were cultured in, food containing high sugar diet (HSD), and different groups of food containing HSD with uniform concentrations (18 μg g^−1 feed) of the compounds 5a, 5b, 5j for 10 days. Acarbose was administered as a positive control. Twenty flies were taken and they were homogenized in 0.2 mL of ice-cold phosphate buffer saline. (pH 7.4). Homogenized samples were centrifuged at 10 000g for 15 min at 4 °C. All fly homogenates were tested for glucose concentration using the manufacturer's protocol (Agape Diagnostics Ltd, India). Throughout the experiments, the control group was maintained in the same conditions as that of other groups except for HSD and compounds. All experiments were carried out in triplicates and the results were expressed in percentages respective to the control group.[32]
The results of all the experiments (n = 3) were analyzed and expressed as mean ± standard deviation (SD). The Student's t-test was performed using GraphPad Prism software (GraphPad Software Inc., CA, USA). p values ≤ 0.05 were considered as statistically significant (*p ≤ 0.05; *p ≤ 0.01; **p ≤ 0.001).

Data set [4] deals with NIH/3T3 cells. Kind of data set: MTT cytotoxicity assay. The data set is classed as cell-based. The following applies: 100 μmol, 24 h incubation. On the procedure: The cytotoxic concentration of synthetic compounds (5a–5j) was evaluated by MTT assay. A standard MTT assay was performed with various concentrations of synthesized compounds against NIH/3T3 cells using a 96-well microplate reader at 570 nm. The cell lines were cultured in DMEM, supplemented with 10% FBS in flasks, and incubated at 37 °C with 5% CO2 in DMEM medium with streptomycin and penicillin (100 IU mL^−1) at the appropriate concentrations. The 96-well plates with media were incubated. After overnight incubation, each plate was discarded and fresh medium was added to each well with varying concentrations (5 μM, 10 μM, 25 μM, 50 μM, 100 μM) of test samples. Then, 200 μL of MTT (0.5 mg mL^−1) were put in each well and further incubated for four hours. Afterward, DMSO (100 μL) was transferred into each microplate well. The absorbance was measured at 570 nm to determine how much MTT was reduced to formazan in the cells.
A general note: Tetrazolium assays rely on reduction of a dye to a coloured formazan, in cell work by metabolically active cells.

Regarding “3-((5-(4-Aminophenyl)-1,3,4-oxadiazol-2-yl)methyl)thiazolidine-2,4-dioneone [Compound 5c]”, the 50% inhibitory concentration (IC50) in data set [1] was 22.6 µM and 34.1 µM; in data set [2] it was 27.25 ± 0.23 µM.
Consider “3-((5-(4-Bromophenyl)-1,3,4-oxadiazol-2-yl)methyl)thiazolidine-2,4-dione [Compound 5b]”, for which the “significance of antihyperglycemic activity” value (“significance” below) in data set [3] is “significant”. The “reduction in glucose levels, female flies” value (“reduction … female flies” below) in data set [3] (whole-body homogenate) came out at 7.03%. Besides, the “percent reduction in glucose levels, male flies” value (from here on “percent reduction”) in data set [3] (whole-body homogenate) was 28.4%. Also, the IC50 was 34.1 µM and 22.6 µM in data set [1]; 22.25 ± 0.22 µM in data set [2].
On to `C[C@H]1O[C@H](O[C@H]2[C@H](O)[C@@H](O)[C@@H](O[C@H]3[C@H](O)[C@@H](O)C(O)O[C@@H]3CO)O[C@@H]2CO)[C@H](O)[C@@H](O)[C@@H]1N[C@H]1C=C(CO)[C@@H](O)[C@H](O)[C@H]1O` (stereo partly shown) [Acarbose, reference compound], for which, in data set [3] (HSD along with acarbose, whole-body homogenate, sex not stated), the “reduction in glucose level” value is reported as “about 62%”.
`O=C1CSC(=O)N1Cc1nnc(-c2ccc(Cl)cc2Cl)o1` [Compound 5a, 3-((5-(2,4-Dichlorophenyl)-1,3,4-oxadiazol-2-yl)methyl)thiazolidine-2,4-dione] had a melting point of 210 to 212 °C. Besides, the “significance” value in data set [3] is “insignificant”. In data set [3] (whole-body homogenate), the “reduction … female flies” value is on record as 12.1% and the “percent reduction” value is on record as 27.7%. Moreover, in data set [1], the IC50 amounted to 18.6 ± 0.22 µM. The compound also showed an IC50 in data set [2] of 17.6 ± 0.19 µM.
Turning to `O=C1CSC(=O)N1Cc1nnc(-c2ccc(O)cc2)o1` [Compound 5d, 3-((5-(4-Hydroxyphenyl)-1,3,4-oxadiazol-2-yl)methyl)thiazolidine-2,4-dione], the melting point was 192 to 194 °C. Moreover, the “percentage cell toxicity (inhibition of cellular viability)” value in data set [4] turned out to be 87%. Moreover, it took 55.4 ± 0.66 µM to reach half-maximal inhibition in data set [1] (IC50). Also, 45.3 ± 0.79 µM corresponded to half-maximal inhibition in data set [2] (IC50).
For `O=C1CSC(=O)N1Cc1nnc(-c2ccccc2)o1` [Compound 5e, 3-((5-Phenyl-1,3,4-oxadiazol-2-yl)methyl)thiazolidine-2,4-dione], the melting point lay within 215 to 217 °C. This compound yielded an IC50 in data set [1] of 32.4 ± 0.46 µM. Further, the IC50 in data set [2] stood at 33.5 ± 0.45 µM.
In the same order, the values of `COc1ccc(-c2nnc(CN3C(=O)CSC3=O)o2)cc1` [Compound 5f, 3-((5-(4-Methoxyphenyl)-1,3,4-oxadiazol-2-yl)methyl)thiazolidine-2,4-dione] are 178 to 180 °C, 39.2 ± 0.52 µM and 51.3 ± 0.83 µM.
In the same order, the values of `O=C1CSC(=O)N1Cc1nnc(-c2ccc(Cl)cc2)o1` [Compound 5g, 3-((5-(4-Chlorophenyl)-1,3,4-oxadiazol-2-yl)methyl)thiazolidine-2,4-dione] are 172 to 174 °C, 28.9 ± 0.36 µM and 27.25 ± 0.24 µM.
In the same order, the values of `O=C1CSC(=O)N1Cc1nnc(-c2ccc([N+](=O)[O-])cc2Cl)o1` [Compound 5h, 3-((5-(2-Chloro-4-nitrophenyl)-1,3,4-oxadiazol-2-yl)methyl)thiazolidine-2,4-dione] are 161 to 163 °C, 23.2 ± 0.31 µM and 28.2 ± 0.31 µM.
In the case of `O=C1CSC(=O)N1Cc1nnc(-c2ccc([N+](=O)[O-])cc2)o1` [Compound 5i, 3-((5-(4-Nitrophenyl)-1,3,4-oxadiazol-2-yl)methyl)thiazolidine-2,4-dione], the melting point lay in the range of 153 to 155 °C. For the same compound, in data set [1], half-maximal inhibition (IC50) was put at 21.1 ± 0.23 µM. Moreover, the IC50 in data set [2] turned out to be 25.2 ± 0.28 µM.
Take `O=C1CSC(=O)N1Cc1nnc(-c2ccc(O)cc2O)o1` [Compound 5j, 3-((5-(2,4-Dihydroxyphenyl)-1,3,4-oxadiazol-2-yl)methyl)thiazolidine-2,4-dione]: the melting point was in the range of 204 to 206 °C. The “percentage cell toxicity (inhibition of cellular viability)” value in data set [4] came to 83%. Moreover, the “significance” value in data set [3] was “significant”. In addition, in data set [3] (whole-body homogenate), the “reduction … female flies” value is 37% and the “percent reduction” value came out at 29.05%. The IC50 in data set [1] worked out at 18.4 ± 0.21 µM. 17.2 ± 0.22 µM corresponded to half-maximal inhibition in data set [2] (IC50).
